≈ marks a conversion by molar mass, not a printed value.
Experiments:
[1] = target: T1, human soluble guanylate cyclase alpha 1 and beta 1 subunits (sGC) stably expressed in Chinese hamster ovary cells (Homo sapiens, UniProt Q02108+Q02153); assay: sGC cellular activator assay: cGMP in CHO cells expressing human sGC, preincubated with ODQ; format: cell-based; settings: 40 microM ODQ preincubation, 30 min at room temperature, presence or absence of 50% human serum not given, read-out: EC50 nM, Activity of Compounds in Cellular Assay
T1 construct: expressed in transfected cells; host or cells: Chinese hamster ovary cells, stably transfected
T1 sequence (Q02108 1-690 partner): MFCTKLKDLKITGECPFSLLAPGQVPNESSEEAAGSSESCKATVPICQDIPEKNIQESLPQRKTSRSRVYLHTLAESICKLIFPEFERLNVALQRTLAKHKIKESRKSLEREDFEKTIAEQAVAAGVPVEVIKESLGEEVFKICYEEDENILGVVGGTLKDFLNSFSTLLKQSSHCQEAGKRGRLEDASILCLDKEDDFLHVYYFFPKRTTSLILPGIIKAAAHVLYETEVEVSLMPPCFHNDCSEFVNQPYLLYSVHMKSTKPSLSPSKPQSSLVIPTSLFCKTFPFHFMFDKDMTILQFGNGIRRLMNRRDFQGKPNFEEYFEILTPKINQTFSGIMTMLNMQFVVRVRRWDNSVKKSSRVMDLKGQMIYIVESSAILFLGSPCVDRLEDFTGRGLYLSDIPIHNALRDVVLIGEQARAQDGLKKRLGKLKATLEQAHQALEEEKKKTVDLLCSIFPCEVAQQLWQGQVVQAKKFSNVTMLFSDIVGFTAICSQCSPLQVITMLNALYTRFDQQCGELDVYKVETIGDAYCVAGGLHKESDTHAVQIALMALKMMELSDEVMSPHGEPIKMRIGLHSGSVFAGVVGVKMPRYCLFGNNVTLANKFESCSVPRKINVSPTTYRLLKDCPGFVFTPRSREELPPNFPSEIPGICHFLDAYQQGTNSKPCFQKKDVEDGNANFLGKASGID
T1 sequence (Q02153 1-619): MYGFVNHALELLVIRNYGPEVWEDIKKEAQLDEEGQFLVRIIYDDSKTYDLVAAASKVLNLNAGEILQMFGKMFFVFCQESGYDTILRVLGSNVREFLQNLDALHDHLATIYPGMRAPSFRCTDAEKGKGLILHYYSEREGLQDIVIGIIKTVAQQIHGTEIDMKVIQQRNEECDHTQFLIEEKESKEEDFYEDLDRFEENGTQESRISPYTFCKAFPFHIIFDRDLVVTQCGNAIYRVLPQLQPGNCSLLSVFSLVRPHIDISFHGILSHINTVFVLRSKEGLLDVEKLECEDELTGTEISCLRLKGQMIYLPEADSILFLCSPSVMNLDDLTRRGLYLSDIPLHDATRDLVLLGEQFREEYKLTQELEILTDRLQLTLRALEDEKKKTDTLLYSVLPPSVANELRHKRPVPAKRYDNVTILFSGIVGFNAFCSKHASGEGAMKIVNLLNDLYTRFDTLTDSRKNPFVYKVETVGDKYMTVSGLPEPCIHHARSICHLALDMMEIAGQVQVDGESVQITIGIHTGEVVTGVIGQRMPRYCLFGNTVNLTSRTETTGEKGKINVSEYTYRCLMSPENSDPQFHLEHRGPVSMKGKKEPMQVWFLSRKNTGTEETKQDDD
Description: The sGC cellular activator assay is performed in the presence and absence of 50% human serum (HS) using Chinese hamster ovary cells that have been stably transfected to express the human soluble guanylate cyclase alpha 1 and beta 1 subunits (sGC). Cells are preincubated with 40 microM 1H-[1,2,4]oxadiazolo[4,3-a]quinoxalin-1-one (ODQ), an sGC inhibitor, for one hour in buffer containing 0.1% bovine serum albumin and 3-isobutyl-1-methylxanthine (IBMX). Concentration response curves are prepared for test compounds in DMSO. An intermediate dilution of the compounds is performed in either buffer containing IBMX or type AB HS containing IBMX. Diluted compounds are added to cells and they are incubated at room temperature for thirty minutes. cGMP is measured using a CisBio homogeneous time resolved fluorescence kit and the EC50 is calculated for each compound.

[2] = Assessment of solubility: HT solubility in pION buffer, UV spectrophotometry; settings: kinetic from dmso stock
Description: Solubility is measured by the following method.
DMSO stock samples at 10 mM concentration are prepared. […] The samples are pierced and 100 ul of thawed samples are transferred into the PCR plate for analysis. Each sample is run in duplicate at each pH (pH 4.5 and 7.4). Up to 95 samples can be run in replicate at 2 pH's+1 DMSO (blank).
Preparation of pH 4.5 and 7.4 Buffers:
• pH 4.5 buffer:—To 12.5 of system solution (pION)qs to 500 mL of distilled water (pH 2.85-2.90); adjust the pH to pH 4.5 with 0.5 N NaOH. • pH 7.4 buffer: To 12.5 of system solution (pION)qs to 500 mL of distilled water (pH 2.85-2.90); adjust the pH to pH 7.4 with 0.5N NaOH. […] Procedure: Preparation of UV Blank Plate:
75 ul of buffer (pH 7.4 or pH 4.5) is added to UV plate followed by addition of 70 ul of N-propanol. The solution is mixed and the blank spectrum is read using spectrophotometer.
Preparation of Reference UV Plate:
10 ul of each stock sample (including DMSO control) is added to 190 ul of N-propanol to prepare the reference stock plate. Reference stock samples are mixed and 5 ul of each stock sample is added to UV blank plate after it is read spectrophotometrically. The reference stock sample is mixed with blank solution in UV plate and the reference spectrum is read using UV spectrophotometer.
Preparation of Sample for Incubation:
Solubility at pH 7.4:6 ul of each stock sample (including DMSO control) is added to the storage plate containing 600 ul of pH 7.4 buffer, mixed and incubated for 16-19 h. The plate is sealed well during the incubation process. The DMSO content in the sample is 1.0%. The concentration in deep well plates is 100 uM
6 ul of each stock sample (including DMSO control) is added to the deep well plate containing 600 ul of pH 4.5 buffer, mixed and incubated for 16-19 h. The plate is sealed well during the incubation process. The DMSO content in the sample is 1.0%. The concentration in deep well plates is 100 uM
Preparation of Sample UV Plate:
At the end of the incubation period, 100 uL of sample from the storage plate is vacuum filtered using a filter plate. This step wets the filters and the filtrate is discarded. Another 200 ul of the sample from the deep well plate is vacuum filtered using the same filter block but a clean filter plate. 75 ul of the filtrate from the filter plate is transferred to a UV sample plate. 75 ul of N-propanol is added to this UV plate. The solution is mixed and the spectrum is read using the UV spectrophotometer.
The spectra collected for blank, reference and sample from 250-498 nm is analyzed using pION software. If the sample precipitates out, the solubility is reported as XX μg/ml.

[3] = pH 6.8, aqueous buffer, Solubility (pH 6.8), pH 6.8
[4] = pION system solution buffer, pH 4.5, pH 4.5, aqueous buffer, Solubility (pH 4.5), pH 4.5 buffer, 16-19 h incubation, 1.0% DMSO
[5] = pION system solution buffer, pH 7.4, pH 7.4, aqueous buffer, Solubility (pH 7.4), pH 7.4 buffer, 16-19 h incubation, 1.0% DMSO

| SMILES | EC50 [1] | solubility [2, 3] | solubility [2, 4] | solubility [2, 5] |
| --- | --- | --- | --- | --- |
| Cc1ccc(OCc2ccc(CN3CCS(=O)(=O)CC3)cc2C)c(-c2csc(N3CC4(CC4C(=O)O)C3)n2)c1 (centres unmarked) [Compound 252] | 260 nM | 0.2 µg/mL (≈ 0.352 µM) | < 0.1 µg/mL |  |
| Cc1ccc(OCc2ccc(CN3CCS(=O)(=O)CC3)cc2C)c(-c2csc(N3CC(CC(=O)O)C3)n2)c1 [Compound 253] | 380 nM | 0.29 µg/mL (≈ 0.522 µM) | 0.5 µg/mL (≈ 0.9 µM) |  |
| Cc1ccc(OCc2ccc(CN3CCOCC3)cc2C)c(-c2csc(N3CC(CC(=O)O)C3)n2)c1 [Compound 254] | 450 nM | 51 µg/mL (≈ 100 µM) | 40 µg/mL (≈ 78.8 µM) |  |
| Cc1ccc(OCc2ccc(CN3CCN(C(=O)C4CC4)CC3)cc2C)c(-c2csc(N3CC(C4(C(=O)O)CC4)C3)n2)c1 [Compound 255] | 480 nM | 0.94 µg/mL (≈ 1.56 µM) | 6 µg/mL (≈ 9.99 µM) |  |
| Cc1ccc(OCc2ccc(C(=O)N3CCOCC3)cc2C)c(-c2csc(N3CC4(CC4C(=O)O)C3)n2)c1 (centres unmarked) [Compound 256] | 500 nM | 82 µg/mL (≈ 154 µM) | 0.69 µg/mL (≈ 1.29 µM) |  |
| Cc1ccc(OCc2ccc(CN3CCOCC3)cc2C)c(-c2csc(N3CC4(CC4C(=O)O)C3)n2)c1 (centres unmarked) [Compound 257] | 540 nM | 45 µg/mL (≈ 86.6 µM) | 56 µg/mL (≈ 108 µM) |  |
| COC[C@]1(C(=O)O)[C@@H]2CC[C@H]1CN(c1nc(-c3cc(C)ccc3OCc3ccc(C(=O)N4CCCCC4)cc3C)cs1)C2 [Compound 258] | 550 nM | 8.2 µg/mL (≈ 13.6 µM) | < 0.1 µg/mL |  |
| Cc1ccc(OCc2ccc(CN3CCS(=O)(=O)CC3)cc2C)c(-c2csc(N3CC(C4(C(=O)O)CC4)C3)n2)c1 [Compound 259] | 580 nM | 19 µg/mL (≈ 32.7 µM) | < 0.1 µg/mL |  |
| Cc1ccc(OCc2ccc(C(=O)N3CCCCC3)cc2C)c(-c2csc(N3CC(C4(C(=O)O)CC4)C3)n2)c1 [Compound 260] | 590 nM | 14 µg/mL (≈ 25.7 µM) | < 0.1 µg/mL |  |
| Cc1ccc(OCc2ccc(CN3CCOCC3)cc2C)c(-c2csc(N3CC(C4(C(=O)O)CC4)C3)n2)c1 [Compound 261] | 710 nM | 6.4 µg/mL (≈ 12 µM) | 17 µg/mL (≈ 31.9 µM) |  |
| CCCC1(C(=O)O)C2CCC1CN(c1nc(-c3cc(C)ccc3OCc3ccc(C(=O)N4CCCCC4)cc3C)cs1)C2 (centres unmarked) [Compound 262] | 980 nM | 12 µg/mL (≈ 19.9 µM) | < 0.1 µg/mL |  |
| Cc1ccc(OCc2ccc(C(=O)N3CCCCC3)cc2C#N)c(-c2csc(N3C[C@H]4CC[C@@H](C3)[C@H]4C(=O)O)n2)c1 [Compound 263] | 13 nM | 58 µg/mL (≈ 102 µM) | 0.3 µg/mL (≈ 0.526 µM) |  |
| Cc1ccc(OCc2ccc(CN3CCOCC3)cc2C#N)c(-c2csc(N3C[C@H]4CC[C@@H](C3)[C@H]4C(=O)O)n2)c1 [Compound 264] | 21 nM | 12 µg/mL (≈ 21.5 µM) | 21 µg/mL (≈ 37.6 µM) |  |
| Cc1ccc(OCc2ccc(CN3CCN(C(=O)C4CC4)CC3)cc2C#N)c(-c2csc(N3C[C@H]4CC[C@@H](C3)[C@H]4C(=O)O)n2)c1 [Compound 265] | 42 nM | 1.9 µg/mL (≈ 3.04 µM) | 0.79 µg/mL (≈ 1.26 µM) |  |
| Cc1ccc(OCc2ccc(C(=O)N3CCOCC3)cc2C#N)c(-c2csc(N3C[C@H]4CC[C@@H](C3)[C@H]4C(=O)O)n2)c1 [Compound 266, 3-(4-{2-[2-cyano-4-(morpholine-4-carbonyl)-benzyloxy]-5-methyl-phenyl}-thiazole-2-yl)-3-aza-bicyclo[3.2.1]octane-8(syn)-carboxylic acid] | 42 nM | 70 µg/mL (≈ 122 µM) | 0.48 µg/mL (≈ 0.838 µM) |  |
| Cc1ccc(OCc2ccc(CN3CCS(=O)(=O)CC3)cc2C#N)c(-c2csc(N3C[C@H]4CC[C@@H](C3)[C@H]4C(=O)O)n2)c1 [Compound 267] | 44 nM | 13 µg/mL (≈ 21.4 µM) | < 0.1 µg/mL |  |
| Cc1ccc(OCc2ccc(C(=O)N3CCOCC3)cc2C)c(-c2csc(N3C[C@H]4CC[C@@H](C3)[C@H]4C(=O)O)n2)c1 [Compound 268] | 7.3 nM | 70 µg/mL (≈ 125 µM) | < 0.1 µg/mL | 38 µg/mL (≈ 67.7 µM) |
| Cc1ccc(OCc2ccc(CN3CCN(C)C(=O)C3)cc2C)c(-c2csc(N3C[C@H]4CC[C@@H](C3)[C@@]4(C)C(=O)O)n2)c1 [Compound 269] | 9.5 nM | 16 µg/mL (≈ 27.2 µM) | 0.28 µg/mL (≈ 0.476 µM) |  |
| Cc1ccc(OCc2ccc(CN3CCOCC3)cc2C)c(-c2csc(N3C[C@H]4CC[C@@H](C3)[C@@]4(C)C(=O)O)n2)c1 [Compound 270, 8-methyl-3-{4-[5-methyl-2-(2-methyl-4-morpholin-4-ylmethyl-benzyloxy)-phenyl]-thiazol-2-yl}-3-aza-bicyclo[3.2.1]octane-8(syn)-carboxylic acid] | 96 nM |  | 17 µg/mL (≈ 30.3 µM) | > 56 µg/mL |
| Cc1ccc(OCc2ccc(C(C)N3CCOCC3)cc2C)c(-c2csc(N3CC4CCC(C3)C4C(=O)O)n2)c1 (centres unmarked) [Compound 276] | 45 nM | 1.9 µg/mL (≈ 3.38 µM) | 32 µg/mL (≈ 57 µM) | 41 µg/mL (≈ 73 µM) |
| COc1cc(CN2CCOCC2)ccc1COc1ccc(C)cc1-c1csc(N2CCC(C(=O)O)CC2)n1 [Compound 278] | 51 nM |  | > 53 µg/mL | 30 µg/mL (≈ 55.8 µM) |
| Cc1ccc(OCc2ccc(CN3CCOCC3)cc2OC(F)(F)F)c(-c2csc(N3C[C@H]4CC[C@@H](C3)[C@H]4C(=O)O)n2)c1 [Compound 280] | 16 nM | 0.9 µg/mL (≈ 1.46 µM) | 0.72 µg/mL (≈ 1.17 µM) |  |
| Cc1ccc(OCc2ccc(C(=O)N3CCOCC3)c(C)c2)c(-c2csc(N3C[C@H]4CC[C@@H](C3)[C@H]4C(=O)O)n2)c1 [Compound 281] | 28 nM | 4.6 µg/mL (≈ 8.19 µM) | < 0.1 µg/mL |  |
| Cc1ccc(OCc2c(C)cc(C(=O)N3CCCCC3)cc2C)c(-c2csc(N3C[C@H]4CC[C@@H](C3)[C@H]4C(=O)O)n2)c1 [Compound 282] | 39 nM | 0.89 µg/mL (≈ 1.55 µM) | < 0.1 µg/mL |  |
| Cc1ccc(OCc2ccc(C(=O)N3CCCCC3)c(C)c2)c(-c2csc(N3C[C@H]4CC[C@@H](C3)[C@H]4C(=O)O)n2)c1 [Compound 283] | 60 nM | 0.1 µg/mL (≈ 0.179 µM) | < 0.1 µg/mL |  |
| Cc1ccc(OCc2c(C)cc(C(=O)N3CCN(C)C(=O)C3)cc2C)c(-c2csc(N3C[C@H]4CC[C@@H](C3)[C@H]4C(=O)O)n2)c1 [Compound 284] | 100 nM | 66 µg/mL (≈ 109 µM) | 0.65 µg/mL (≈ 1.08 µM) |  |
| Cc1ccc(OCc2c(C)cc(C(=O)N3CCOCC3)cc2C)c(-c2csc(N3C[C@H]4CC[C@@H](C3)[C@H]4C(=O)O)n2)c1 [Compound 285] | 120 nM | 54 µg/mL (≈ 93.8 µM) | < 0.1 µg/mL |  |
| Cc1ccc(OCc2ccc(C(=O)N3CCN(C)C(=O)C3)c(C)c2)c(-c2csc(N3C[C@H]4CC[C@@H](C3)[C@H]4C(=O)O)n2)c1 [Compound 286] | 37 nM | 83 µg/mL (≈ 141 µM) | 1 µg/mL (≈ 1.7 µM) |  |
| CCc1cc(C(=O)N2CCCCC2)ccc1COc1ccc(C)cc1-c1csc(N2C[C@H]3CC[C@@H](C2)[C@H]3C(=O)O)n1 [Compound 287] | 6.2 nM | 21 µg/mL (≈ 36.6 µM) | < 0.1 µg/mL |  |
| CCc1cc(C(=O)N2CCOCC2)ccc1COc1ccc(C)cc1-c1csc(N2C[C@H]3CC[C@@H](C2)[C@H]3C(=O)O)n1 [Compound 288] | 9.7 nM | 29 µg/mL (≈ 50.4 µM) | < 0.1 µg/mL |  |

— patent US8815857B2 (Boehringer Ingelheim International GmbH, priority 2011, dated 2014)
